According to the supplement of paper PMC10949913:

Tests used:
Details in all cases: 48 h
[1] = system: CU-ACC1; assay: AC50 viability; higher = less potent
Method in brief: (§1)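 Three adrenocortical carcinoma cell lines were seeded at 500–1,000 cells/well in 5 µL medium in 1,536-well plates. 23 nL of each MIPE 5.0 library compound was added at 11 concentrations. After 48 h (per the protocol name), CellTiter-Glo was added for 15 minutes at room temperature and luminescence was read. Signals were normalised per plate to vehicle and empty-well controls. AC50 and area under the curve came from fitted concentration-response curves, keeping only inhibitory or non-responding curve classes.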

[2] = system: CU-ACC2; assay: AC50 viability; higher = less potent
Method in brief: as §1

[3] = system: CU-ACC1; assay: area under concentration-response curve (viability) (AUC (a.u.)); higher = less active
Method in brief: as §1

[4] = system: CU-ACC2; assay: as above
Method in brief: as §1

[5] = system: NCI-H295R; assay: as above
Method in brief: as §1

[6] = system: NCI-H295R; assay: AC50 viability; higher = less potent
Method in brief: as §1

SMILES	AC50 viability [1] [µM]	AC50 viability [2] [µM]	area under concentration-response curve [3]	area under concentration-response curve [4]	area under concentration-response curve [5]	AC50 viability [6] [µM]
CC(C)(C)C(=O)OCOP(=O)(COCCn1cnc2c(N)ncnc21)OCOC(=O)C(C)(C)C	8.33	7.42	456	527		
O=C1[C@H](Cc2ccc(O)cc2)N2C(=O)CCN(C(=O)NCc3ccccc3)[C@H]2CN1Cc1cccc2ccccc12	11.8	4.68	531	554	496	
COC1=CC(c2cc3ccccc3[nH]2)=N/C1=C/c1[nH]c(C)cc1C	37.2	33.2	410	495		
C[C@]12Cc3cn[nH]c3C[C@@H]1CC[C@@H]1[C@@H]2CC[C@@]2(C)[C@H]1CC[C@]2(C)O	0.0132	0.263	335	214	312	
c1cc(N[C@@H]2CCNC2)nc(-c2cnc3ccc(-c4cn[nH]c4)cn23)c1	0.00662	41.7	331	380	409	
CCC[C@H](NC(=O)/C(C#N)=C/c1cccc(Br)n1)c1ccccc1	26.3	26.3	468	565		
O=C(c1ccc(Nc2nc(C3CC3)cn3c(-c4cn[nH]c4)cnc23)c(F)c1)N1CCOCC1	3.32	14.8	366	343		
C[C@@H](O)[C@@H](C)Oc1nc(Nc2ccc([S+](=N)([O-])C3CC3)cc2)ncc1C(F)(F)F (stereo not given in full)	23.5	26.3	476	567		
CN[C@@H](C)C(=O)N[C@H]1CCCC[C@H]2CC[C@@H](C(=O)N[C@@H](c3ccccc3)c3cn(CCCCc4ccc(CCCCn5cc([C@@H](NC(=O)[C@@H]6CC[C@@H]7CCCC[C@H](NC(=O)[C@H](C)NC)C(=O)N76)c6ccccc6)nn5)cc4)nn3)N2C1=O	0.166	0.332	260	303		
COC1=CC=C2Nc3cc(Cl)ccc3C(N=C3C=C(CN4CCCC4)C(=O)C(CN4CCCC4)=C3)=C2N1	18.6	23.5	477	528		
Oc1ccc2ccccc2c1SSc1c(O)ccc2ccccc12	41.7	23.5	487	583		
O=C(CC12CC3CC(CC(C3)C1)C2)Nc1cccc2nc(NCCNCCO)ccc12	26.3	23.5	473	537		
CC[C@]12\C=C/CN3CC[C@]4([C@@H](N(C)C5=C4C=C(C(=C5)OC)[C@]6(CC7C[C@H](CN(C7)CC8=C6[NH]C9=C8C=CC=C9)C(C)(F)F)C(=O)OC)[C@](O)([C@@H]1OC(C)=O)C(=O)OC)[C@H]23 (stereo not given in full)		5.9	468	533	394	1.48
Cc1ccc(-n2nc(C(C)(C)C)cc2N/C(O)=N/Cc2cc(F)ccc2Oc2ccc3c(cnn3CCO)c2)cc1		20.9	518	549	522	33.2
Cc1cc(Nc2nc(N[C@@H](C)c3ccc(F)cc3)c(C#N)cc2F)n[nH]1	18.6	20.9	516	467		
COc1cc(F)c(F)c(Nc2ccc(I)cc2F)c1N[S+](=O)([O-])C1(C[C@H](O)CO)CC1	16.6	6.61	421	476		
NCC(=O)NC1=CC(=CN=C1)\C2=N\N/3C(=O)\C=C(/N=C3S2)N4CCNCC4		0.0934	269	254	143	0.00417
O=C(CCCCCCC(=O)Nc1ccccc1)NO	2.95	3.32	415	474		
N#CC(c1ccnc(NCCc2cccnc2)n1)c1nc2ccccc2s1 (stereo not given)		16.6	509	493	410	20.9
CN[C@H]1CCC2=CC(=C(OC)C(=C2C/3=C/C=C(OC)\C(=O)/C=C13)OC)OC		0.468	478	463	417	0.0934
CC(C)(C)C[C@H]1N[C@@H](C(=O)N[C@H]2CC[C@H](O)CC2)[C@H](c2cccc(Cl)c2F)[C@@]12C(=O)Nc1cc(Cl)ccc12	1.48	23.5	473	461		
COc1cc2c(N3CCN(C(=O)Nc4ccc(OC(C)C)cc4)CC3)ncnc2cc1OCCCN1CCCCC1	16.6	7.42	401	457		
C[C@@H]1CC[C@@]2(CC[C@]3(C)\C(=C/C[C@@H]4[C@@]5(C)C[C@@H](O)[C@H](O)[C@@](C)(CO)[C@@H]5CC[C@@]34C)[C@@H]2[C@H]1C)C(O)=O		1.18	371	410	354	2.35
CC(O)c1cc(C(=O)N[C@@H](C)Cn2ccc(-c3ccc(C#N)c(Cl)c3)n2)n[nH]1 (stereo not given in full)	33.2	20.9	454	488		
COCCNCc1ccc(-c2cc3nccc(Oc4ccc(NC(=S)NC(=O)Cc5ccc(F)cc5)cc4F)c3s2)nc1		7.42	436	444	388	4.68
CC(=O)O[C@@]12CO[C@@H]1C[C@H](O)[C@@]1(C)C(=O)[C@H](O)C3=C(C)[C@@H](OC(=O)[C@H](O)[C@@H](NC(=O)OC(C)(C)C)c4ccccc4)C[C@@](O)([C@@H](OC(=O)c4ccccc4)[C@H]21)C3(C)C		20.9	302	334	270	0.417
Cc1cc(Nc2cc(N3CCN(C)CC3)nc(Sc3ccc(NC(=O)C4CC4)cc3)n2)[nH]n1		20.9	534	569	459	18.6
CN1CCN(Cc2ccc(Nc3ncc(Cl)/c(=N\c4ccccc4[S+](=O)([O-])N(C)C)[nH]3)cc2)CC1		0.108	437	378	364	0.241
C[C@H]1CNC(=O)c2cnn3ccc(nc23)N[C@H](C)c2cc(F)ccc2O1		6.61	523	475	454	2.35
